From paper PMC5406667, “Antiretroviral Activity Of a Novel Pyrimidyl-Di(Diazaspiroalkane) Derivative” (Acta Naturae, 2017)
“And” between values parts separate entries of the source, which are not always exact repeats. Identical values can stand only once. Like-named read-outs stand apart in the source and are kept apart here.

Assays:
HIV-1 6S = tested on: HIV-1 6S
Procedure: (§1) Our studies were carried out at the National Cancer Institute (National Cancer Institute, Bethesda, Maryland, USA). Antiviral activity was assessed using the XTT test with various concentrations of the compound and incubation of cells (CEM-SS, MT-2, MT-4) in the presence of serial dilutions of dispiropiperazine 2 (dissolved in dimethyl sulphoxide, DMSO) for 6 days at a temperature of 37°C and humidified atmosphere with 5% CO2, followed by addition of XTT reagents. The method is based on a spectrometric measurement of the level of formazan transformed by living cells from a water-soluble tetrazolium salt, XTT.
(§2) The following HIV strains were used: the reference HIV-1 IIIB strain; the AZT-sensitive HIV-1 6S, HIV- 1 RF strains; the drug-resistant HIV-1 N119 strains (resistant to nevirapine, Y181C mutation), HIV-1 DPS (resistant to diphenyl sulfone, Y181C mutation), and HIV-1 A-17 (resistant to nevirapine, K103N and Y181C mutations). We also used the HIV-2 ROD strain and simian immunodeficiency virus SIV MAC 251.

HIV-1 A-17 = details: for IC50: HIV-1 A-17 (resistant to nevirapine, K103N and Y181C), 6 days, XTT
Procedure: as §1, §2

HIV-1 DPS = details: MT-4 cells
Procedure: as §1, §2

HIV-1 IIIB = details: MT-4 cells
Procedure: as §1, §2

HIV-1 N119 = tested on: HIV-1 N119
Procedure: as §1, §2

HIV-1 RF = details: CEM-SS cells
Procedure: as §1, §2

HIV-2 ROD = details: CEM-SS cells
Procedure: as §1, §2

SIV MAC 251 = details: SIV MAC 251, MT-4 cells
Procedure: as §1, §2

CEM-SS = details: read-out: CC50 (cytotoxic concentration), CEM-SS cells
Procedure: as §1

MT-2 = details: read-out: CC50 (cytotoxic concentration), MT-2 cells
Procedure: as §1

MT-4 = details: read-out: CC50 (cytotoxic concentration), MT-4 cells
Procedure: as §1

cellular HSPG = tested on: cellular HSPG; design: method as in earlier work; details: prevents virus binding; cited from earlier work
herpes viruses = details: cited from earlier work
[1] = design: method as in PMID 15341064; details: degradation accompanied by the formation of nitric oxide; cited from earlier work

3,3’-(5-nitropyrimidine-4,6-diyl)bis-3,12-diaza-6,9-diazoniadispiro[ 5.2.5.2]hexadecane tetrachloride dihydrochloride [Compound 2]
IC50 (HIV-1 6S): 1.37 µM and 1.4 µM | TI (CC50/IC50), therapeutic index (HIV-1 6S; HIV-1 6S, MT-2 cells): 71.4 | IC50 (HIV-1 A-17; MT-2 cells): 4.7 µM | IC50 (HIV-1 A-17; MT-4 cells): 33.7 µM | TI (CC50/IC50), therapeutic index (HIV-1 A-17; HIV-1 A-17, MT-2 cells): 16.7 | TI (CC50/IC50), therapeutic index (HIV-1 A-17; HIV-1 A-17, MT-4 cells): 5.9 | IC50 (HIV-1 DPS; HIV-1 DPS (resistant to diphenyl sulfone, Y181C), 6 days, XTT): 1.17 µM and 1.2 µM | TI (CC50/IC50), therapeutic index (HIV-1 DPS; HIV-1 DPS): 170.0 | IC50 (HIV-1 IIIB; HIV-1 IIIB (reference strain), 6 days, XTT): 5.7 µM | TI (CC50/IC50), therapeutic index (HIV-1 IIIB; HIV-1 IIIB): 35.0 | IC50 (HIV-1 N119; HIV-1 N119 (resistant to nevirapine, Y181C), MT-4 cells, 6 days, XTT): 31.7 µM | TI (CC50/IC50), therapeutic index (HIV-1 N119; HIV-1 N119, MT-4 cells): 6.3 | IC50 (HIV-1 RF; HIV-1 RF (AZT-sensitive), 6 days, XTT): 150 µM | TI (CC50/IC50), therapeutic index (HIV-1 RF; HIV-1 RF): 1.3 | TI (CC50/IC50), therapeutic index (HIV-2 ROD): 15.0 | IC50 (HIV-2 ROD; 6 days, XTT): 13.3 µM | TI (CC50/IC50), therapeutic index (SIV MAC 251): 31.5 | IC50 (SIV MAC 251; 6 days, XTT): 6.3 µM | CC50 (CEM-SS; HIV-1 RF experiment): 197 µM | CC50 (CEM-SS; HIV-2 ROD experiment): 200 µM | CC50 (MT-2; HIV-1 6S experiment): 98.2 µM | CC50 (MT-2; HIV-1 A-17 experiment): 79.1 µM | CC50 (MT-4; HIV-1 A-17 experiment): 200 µM | CC50 (MT-4; HIV-1 DPS experiment): 200 µM | CC50 (MT-4; HIV-1 IIIB experiment): 200 µM | CC50 (MT-4; HIV-1 N119 experiment): 200 µM | CC50 (MT-4; SIV MAC 251 experiment): 200 µM

[O-][n+]1onc2ncnc(N3CC[N+]4(CC3)CC[N+]3(CCN(c5ncnc6no[n+]([O-])c56)CC3)CC4)c21 [Compound 1, N,N’-(bis-1-oxido[1,2,5]oxadiazolo [3,4d]-nitropyrimidine-7-il)-3,12-diaza-6,9-diazonia(5,2,5,2)dispirohexane dichloride]
Binding to cellular HSPG (cellular HSPG): effective reversible binding to cellular HSPG | Inhibition of replication in herpes viruses (herpes viruses): inhibits replication in herpes viruses | Metabolic stability [1]: metabolic instability
